According to ChEMBL document CHEMBL1152406, “Conformationally restricted homotryptamines. Part 5: 3-(trans-2-aminomethylcyclopentyl)indoles as potent selective serotonin reuptake inhibitors” (Bioorg Med Chem Lett, 2009):
Active and inactive are the calls of the source. No cut-off for these calls is given here.

Experiments:
[1] = molecular target: Sodium-dependent serotonin transporter (Homo sapiens, UniProt P31645); assay: Displacement of [125I]RTI-55 from human SERT expressed in HEK293 cells; assay type: cell-based
[2] = molecular target: Sodium-dependent dopamine transporter (Homo sapiens, UniProt Q01959); assay: Displacement of [125I]RTI-55 from human DAT expressed in HEK293 cells; assay type: cell-based
[3] = molecular target: Sodium-dependent noradrenaline transporter (Homo sapiens, UniProt P23975); assay: Displacement of [125I]nisoxetine from human NET expressed in HEK293 cells; assay type: cell-based
Rattus norvegicus [4] = assay: Increase in extracellular serotonin level in frontal cortex of awake and free moving rat at 1 mg/kg, po by microdialysis relative to basal level; assay type: functional
Rattus norvegicus [5] = assay: Increase in extracellular serotonin level in frontal cortex of awake and free moving rat at 5 mg/kg, po by microdialysis relative to basal level; assay type: functional
Rattus norvegicus [6] = assay: Increase in extracellular serotonin level in frontal cortex of awake and free moving rat at 0.3 to 3 mg/kg, po by microdialysis; assay type: functional, organism-based

Sodium-dependent serotonin transporter, sequence (P31645 whole entry): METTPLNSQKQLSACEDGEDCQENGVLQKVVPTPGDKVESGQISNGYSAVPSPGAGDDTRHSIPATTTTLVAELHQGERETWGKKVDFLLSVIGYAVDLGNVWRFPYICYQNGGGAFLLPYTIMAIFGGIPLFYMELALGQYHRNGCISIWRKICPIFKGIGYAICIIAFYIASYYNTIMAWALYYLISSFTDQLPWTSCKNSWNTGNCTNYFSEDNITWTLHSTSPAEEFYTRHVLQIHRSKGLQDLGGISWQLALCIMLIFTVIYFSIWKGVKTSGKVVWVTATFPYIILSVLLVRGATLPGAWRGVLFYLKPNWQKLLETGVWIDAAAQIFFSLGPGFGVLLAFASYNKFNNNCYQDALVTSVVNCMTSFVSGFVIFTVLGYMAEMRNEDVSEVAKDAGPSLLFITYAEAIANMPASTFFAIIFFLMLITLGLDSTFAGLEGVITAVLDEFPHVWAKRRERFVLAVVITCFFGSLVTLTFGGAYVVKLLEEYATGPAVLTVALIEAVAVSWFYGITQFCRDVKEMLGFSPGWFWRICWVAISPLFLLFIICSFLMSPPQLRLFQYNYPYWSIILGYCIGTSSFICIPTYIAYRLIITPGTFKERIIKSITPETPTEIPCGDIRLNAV
Sodium-dependent noradrenaline transporter, sequence (P23975 whole entry): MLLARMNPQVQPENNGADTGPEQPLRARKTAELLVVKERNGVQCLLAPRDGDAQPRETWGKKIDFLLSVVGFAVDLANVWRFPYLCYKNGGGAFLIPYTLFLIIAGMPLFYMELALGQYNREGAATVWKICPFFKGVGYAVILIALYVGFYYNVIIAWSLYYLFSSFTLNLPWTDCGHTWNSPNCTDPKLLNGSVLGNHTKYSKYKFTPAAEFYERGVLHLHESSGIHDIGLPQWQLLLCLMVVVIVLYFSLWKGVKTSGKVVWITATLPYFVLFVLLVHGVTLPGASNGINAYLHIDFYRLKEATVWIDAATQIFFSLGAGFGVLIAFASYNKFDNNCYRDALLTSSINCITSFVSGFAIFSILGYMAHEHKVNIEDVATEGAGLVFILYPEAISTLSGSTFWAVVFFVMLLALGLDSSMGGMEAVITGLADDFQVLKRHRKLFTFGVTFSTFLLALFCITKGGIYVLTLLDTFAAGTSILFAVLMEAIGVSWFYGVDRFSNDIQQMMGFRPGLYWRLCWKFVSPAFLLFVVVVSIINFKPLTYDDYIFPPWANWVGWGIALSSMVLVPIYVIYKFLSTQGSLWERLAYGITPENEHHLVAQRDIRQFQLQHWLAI
Sodium-dependent dopamine transporter, sequence (Q01959 whole entry): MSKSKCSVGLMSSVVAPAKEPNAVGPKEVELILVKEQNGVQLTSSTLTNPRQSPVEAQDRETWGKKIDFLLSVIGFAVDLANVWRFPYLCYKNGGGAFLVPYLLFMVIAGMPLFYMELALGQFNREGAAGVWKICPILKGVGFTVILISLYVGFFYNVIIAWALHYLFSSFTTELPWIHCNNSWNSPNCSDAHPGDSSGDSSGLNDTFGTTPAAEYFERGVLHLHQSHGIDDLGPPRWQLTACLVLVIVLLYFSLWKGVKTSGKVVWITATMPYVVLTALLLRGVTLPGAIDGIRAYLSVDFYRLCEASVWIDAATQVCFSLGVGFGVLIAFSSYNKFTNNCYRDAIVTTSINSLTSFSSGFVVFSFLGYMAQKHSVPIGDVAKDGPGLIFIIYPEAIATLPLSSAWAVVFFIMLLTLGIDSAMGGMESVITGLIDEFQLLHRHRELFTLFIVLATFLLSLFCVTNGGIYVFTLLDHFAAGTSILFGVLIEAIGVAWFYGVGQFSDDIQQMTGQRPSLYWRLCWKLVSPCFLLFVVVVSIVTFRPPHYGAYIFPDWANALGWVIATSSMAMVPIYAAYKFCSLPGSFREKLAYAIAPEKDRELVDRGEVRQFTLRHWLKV

Q: How did the IC50 [1] turn out when `CN(C)C[C@H]1CCC[C@H]1c1c[nH]c2ccc(C#N)cc12` was run?
A: 130 nM

Q: For `CNC[C@H]1CCC[C@@H]1c1c[nH]c2ccc(C#N)cc12` (racemic), which IC50 [1] is on record?
A: 7 nM

Q: Which results are given for `CN(C)C[C@H]1C[C@@H]1c1c[nH]c2ccc(C#N)cc12`?
A: IC50 [2]: 4200 nM; IC50 [3]: 9200 nM; IC50 [1]: 0.36 nM

Q: Which results are given for `CN(C)C[C@H]1CCC[C@@H]1c1c[nH]c2ccc(C#N)cc12` [listing 1 of 2 here]?
A: Activity (Rattus norvegicus [4]): >300%; Activity (Rattus norvegicus [5]): >300%; IC50 [2]: 690 nM; IC50 [3]: 7900 nM; IC50 [1]: 0.13 nM

Q: How did the IC50 [1] turn out when `CCNC[C@H]1CCC[C@@H]1c1c[nH]c2ccc(C#N)cc12` (racemic) was run?
A: 170 nM

Q: With `CCN(C)C[C@H]1CCC[C@@H]1c1c[nH]c2ccc(C#N)cc12` (racemic) as the molecule, how does the IC50 [1] read?
A: 10 nM

Q: `CCN(CC)C[C@H]1CCC[C@@H]1c1c[nH]c2ccc(C#N)cc12` (racemic) was tested. Which IC50 [1] did it give?
A: 240 nM

Q: With `CN(C)C[C@@H]1CCC[C@H]1c1c[nH]c2ccc(C#N)cc12` as the molecule, how does the IC50 [1] read?
A: 58 nM

Q: `CN(C)C[C@@H]1CCC[C@@H]1c1c[nH]c2ccc(C#N)cc12` (racemic) was tested. Which IC50 [1] did it give?
A: 2.6 nM

Q: `CN(C)C[C@@H]1CCC[C@@H]1c1c[nH]c2ccc(C#N)cc12` was tested. Which IC50 [1] did it give?
A: 1.2 nM

Q: `CN(C)C[C@H]1CCC[C@@H]1c1c[nH]c2ccc(C#N)cc12` [listing 2 of 2 here] was tested. Which Activity (Rattus norvegicus [6]) did it give?
A: Active

Q: Which IC50 [1] does the source give for `CN(Cc1ccccc1)C[C@H]1CCC[C@@H]1c1c[nH]c2ccc(C#N)cc12` (racemic) here?
A: 85 nM

Q: With `CN(C)C[C@H]1CCC[C@@H]1c1c[nH]c2ccc(C#N)cc12` (racemic) as the molecule, how does the IC50 [1] read?
A: 0.32 nM

Q: How did the IC50 [1] turn out when `N#Cc1ccc2[nH]cc([C@H]3CCC[C@@H]3CN3CCCC3)c2c1` (racemic) was run?
A: 22 nM
